Values of other authors in patent US8415326B2, “Pharmaceutical composition comprising chito-oligomers” (Genis Ehf., priority 2001, dated 2013).

What was measured:
[1] = tested on: normal human articular chondrocytes; details: reference [24]
[2] = tested on: mesothelial cells and fibroblasts; details: reference [11]
[3] = tested on: activated macrophages; details: reference [23]

SMILES	effect on NO production in normal human articular chondrocytes [1]	synthesis of hyaluronan [2]	effect on nitric oxide (NO) production by activated macrophages [3]
CC(=O)N[C@H]1C(O)O[C@H](CO)[C@@H](O)[C@@H]1O (some centres unmarked) [N-acetylglucosamine]	inhibit NO production	increases the synthesis of hyaluronan	
N[C@H]1C(O)O[C@H](CO)[C@@H](O)[C@@H]1O (some centres unmarked) [glucosamine]	inhibit NO production		
CC(=O)N[C@H]1[C@H](O[C@H]2[C@H](O)[C@@H](NC(C)=O)[C@H](O[C@H]3[C@H](O)[C@@H](NC(C)=O)C(O)O[C@@H]3CO)O[C@@H]2CO)O[C@H](CO)[C@@H](O[C@@H]2O[C@H](CO)[C@@H](O[C@@H]3O[C@H](CO)[C@@H](O[C@@H]4O[C@H](CO)[C@@H](O)[C@H](O)[C@H]4NC(C)=O)[C@H](O)[C@H]3NC(C)=O)[C@H](O)[C@H]2NC(C)=O)[C@@H]1O (some centres unmarked) [Hexa-N-acetylchitohexaose]			inhibited NO production but with less potency
CC(=O)N[C@H]1[C@H](O[C@H]2[C@H](O)[C@@H](NC(C)=O)[C@H](O[C@H]3[C@H](O)[C@@H](NC(C)=O)C(O)O[C@@H]3CO)O[C@@H]2CO)O[C@H](CO)[C@@H](O[C@@H]2O[C@H](CO)[C@@H](O[C@@H]3O[C@H](CO)[C@@H](O)[C@H](O)[C@H]3NC(C)=O)[C@H](O)[C@H]2NC(C)=O)[C@@H]1O (some centres unmarked) [penta-N-acetylchitopentaose]			inhibited NO production but with less potency
